Literature values, collected in US20190314298A1, “COMPOSITIONS FOR PREVENTING AND RELIEVING HANGOVER & LIVER DAMAGE WHICH OCCUR DUE TO ALCOHOL CONSUMPTION” (priority 2018, published 2019).

Conditions: biological activities listed in background table

Q: With `CC(C)=CC(=O)CC(C)c1ccc(C)cc1` (centres unmarked) [Ar-turmerone] as the molecule, how does the Activity read?
A: snakebite

Q: With `O=C(C=Cc1ccc(O)cc1)CC(=O)C=Cc1ccc(O)cc1` [Bisdemethoxy curcumin] as the molecule, how does the Activity read?
A: antioxidant

Q: Which Activity does the source give for `COc1cc(/C=C/C(=O)/C=C(O)\C=C\c2ccc(OC)c(OC)c2)ccc1O` [Methylcurcumin] here?
A: L. amazonensis

Q: For `COc1cc(/C=C/C(=O)CC(=O)/C=C/c2ccc([O-])c(OC)c2)ccc1[O-].[Na+].[Na+]` [Sodium curcuminate], which Activity is on record?
A: anti-inflammatory

Q: For Demethoxy curcumin, which Activity is on record?
A: antioxidant
